Results reported in patent US9315490B2, “2,5-substituted pyrimidines” (Grünenthal GmbH, priority 2014, dated 2016).

Biological target: T1, human PDE4B1 (Homo sapiens, UniProt Q07343)
T1 construct: host or cells: Sf9 cells
Assay: cAMP HTRF assay to determine the activity of hPDE4B1
Format: biochemical
Settings: inhibition of PDE4B at a test concentration of 1 μM; for Inhibition in %: 1 µM
Method: Biological Testing cAMP HTRF® Assay to Determine the Activity of hPDE4B1
The inhibiting effect of the compounds on the enzyme activity of human PDE4B1 was measured by the quantification of 5′-adenosine monophosphate (5′-AMP), which is formed from 3′,5′-cyclic adenosine monophosphate (cAMP). Human recombinant enzyme, expressed in Sf9 cells, and the HTRF (homogeneous time-resolved fluorescence) detection method were used in the assay.
The test compound or water (control) was mixed with the human recombinant PDE4B1 enzyme (4.8 U) in a buffer consisting of 44.4 mM tris-HCl, 5.28 mM MgCl2, 2.64 mM DTT and 0.044% Tween 20 (pH 7.8). After adding the cAMP enzyme substrate (final concentration 40 nM), the mixture was incubated for 30 minutes at room temperature. Then a fluorescence acceptor (Dye2 marked with cAMP), a fluorescence donor (anti-cAMP antibody marked with a europium cryptate) and the non-specific phosphodiesterase inhibitor IBMX (3-isobutyl-1-methylxanthine; final concentration 1 mM) were added. After 60 minutes the fluorescence transfer, which correlates with the amount of remaining cAMP, was measured with a microplate reader (Rubystar, BMG) at λex=337 nm, λem=620 nm and λem=665 nm. The enzyme activity was calculated from the quotient formed from the measured signal at 665 nm and that at 620 nm. The result was expressed as the percentage inhibition of enzyme activity of the control (without PDE4 inhibitor). The enzyme was omitted for measurement of the basal control. IC50 values (IC50=concentration causing a half-maximal inhibition of control specific activity) were derived from dose response measurements with eight different concentrations (n=2; N=1-3).
Literature: N. Saldou et al., Comparison of recombinant human PDE4 isoforms: interaction with substrate and inhibitors, Cell. Signal. Vol. 10, No. 6, 427-440, 1998

T1 sequence (Q07343 whole entry): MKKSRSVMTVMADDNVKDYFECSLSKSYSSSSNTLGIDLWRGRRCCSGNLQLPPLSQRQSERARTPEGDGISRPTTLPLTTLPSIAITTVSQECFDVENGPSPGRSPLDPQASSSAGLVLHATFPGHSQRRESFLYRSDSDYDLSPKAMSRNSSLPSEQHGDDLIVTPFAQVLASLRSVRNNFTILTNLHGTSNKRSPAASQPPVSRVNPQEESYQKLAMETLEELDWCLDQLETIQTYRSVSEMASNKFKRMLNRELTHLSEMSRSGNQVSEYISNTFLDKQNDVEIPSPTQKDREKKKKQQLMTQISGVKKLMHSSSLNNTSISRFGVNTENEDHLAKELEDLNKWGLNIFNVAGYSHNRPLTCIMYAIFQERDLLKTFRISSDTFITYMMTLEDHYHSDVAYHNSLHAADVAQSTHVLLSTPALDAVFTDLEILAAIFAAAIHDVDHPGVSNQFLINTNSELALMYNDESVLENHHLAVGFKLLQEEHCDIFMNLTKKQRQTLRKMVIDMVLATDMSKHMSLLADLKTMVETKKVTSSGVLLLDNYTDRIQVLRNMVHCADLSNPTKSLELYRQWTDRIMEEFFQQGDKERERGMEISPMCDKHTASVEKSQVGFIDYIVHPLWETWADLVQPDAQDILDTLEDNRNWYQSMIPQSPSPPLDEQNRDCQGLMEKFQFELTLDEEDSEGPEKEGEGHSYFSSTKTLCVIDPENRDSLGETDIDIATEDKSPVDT

Row | inhibition at 1 µM | Inhibition in % | Compound
1 | 46% |  | CN(C(=O)c1ccc2c([S+](C)[O-])cn(-c3ncc(-c4ccccc4F)cn3)c2c1)C1CCOC1 (stereo not drawn) [Example 54, 1-(5-(2-Fluorophenyl)pyrimidin-2-yl)-N-methyl-3-(methylsulfinyl)-N-(tetrahydrofuran-3-yl)-1H-indole-6-carboxamide]
2 | 40% |  | C[S+]([O-])c1cn(-c2ncc(-c3ccccc3F)cn2)c2cc(C(=O)N3CCCNCC3)ccc12 (stereo not drawn) [Example 55, (1,4-Diazepan-1-yl)(1-(5-(2-fluorophenyl)pyrimidin-2-yl)-3-(methylsulfinyl)-1H-indol-6-yl)methanone]
3 | 86% |  | C[S+]([O-])c1cn(-c2ncc(-c3ccccc3F)cn2)c2cc(C(=O)N3CCNC(=O)C3)ccc12 (stereo not drawn) [Example 56, 4-(1-(5-(2-Fluorophenyl)pyrimidin-2-yl)-3-(methylsulfinyl)-1H-indole-6-carbonyl)piperazin-2-one]
4 | 90% |  | CN(C(=O)c1ccc2c([S+](C)[O-])cn(-c3ncc(-c4ccccc4F)cn3)c2c1)C1CCNC1 (stereo not drawn) [Example 58, 1-(5-(2-Fluorophenyl)pyrimidin-2-yl)-N-methyl-3-(methylsulfinyl)-N-(pyrrolidin-3-yl)-1H-indole-6-carboxamide]
5 | 79% |  | C[S+]([O-])c1cn(-c2ncc(-c3ccccc3F)cn2)c2cc(C(=O)N3CCCOCC3)ccc12 (stereo not drawn) [Example 60, (1-(5-(2-Fluorophenyl)pyrimidin-2-yl)-3-(methylsulfinyl)-1H-indol-6-yl)(1,4-oxoazepan-4-yl)methanone]
6 | 77% |  | CNC(=O)c1ccc2c([S+](C)[O-])cn(-c3ncc(-c4ccccc4F)cn3)c2c1 (stereo not drawn) [Example 61, 1-(5-(2-Fluorophenyl)pyrimidin-2-yl)-N-methyl-3-(methylsulfinyl)-1H-indole-6-carboxamide]
7 | 37% |  | C[S+]([O-])c1cn(-c2ncc(-c3ccccc3F)cn2)c2cc(C(=O)NCCO)ccc12 (stereo not drawn) [Example 63, 1-(5-(2-Fluorophenyl)pyrimidin-2-yl)-N-(2-hydroxyethyl)-3-(methylsulfinyl)-1H-indole-6-carboxamide]
8 | 67% |  | CN(CCO)C(=O)c1ccc2c([S+](C)[O-])cn(-c3ncc(-c4ccccc4F)cn3)c2c1 (stereo not drawn) [Example 64, 1-(5-(2-Fluorophenyl)pyrimidin-2-yl)-N-(2-hydroxyethyl)-N-methyl-3-(methylsulfinyl)-1H-indole-6-carboxamide]
9 | 40% |  | COCCN(C)C(=O)c1ccc2c([S+](C)[O-])cn(-c3ncc(-c4ccccc4F)cn3)c2c1 (stereo not drawn) [Example 65, 1-(5-(2-Fluorophenyl)pyrimidin-2-yl)-N-(2-methoxyethyl)-N-methyl-3-(methylsulfinyl)-1H-indole-6-carboxamide]
10 | 97% |  | C[S+]([O-])c1cn(-c2ncc(-c3ccccc3F)cn2)c2cc(C(=O)N3CC[C@@H](O)C3)ccc12 (stereo partly drawn) [Example 66, (1-(5-(2-Fluorophenyl)pyrimidin-2-yl)-3-(methylsulfinyl)-1H-indol-6-yl)((R)-3-hydroxypyrrolidin-1-yl)methanone]
11 | 47% |  | C[S+]([O-])c1cn(-c2ncc(-c3ccccc3F)cn2)c2cc(C(=O)N3CC[C@H](O)C3)ccc12 (stereo partly drawn) [Example 67, (1-(5-(2-Fluorophenyl)pyrimidin-2-yl)-3-(methylsulfinyl)-1H-indol-6-yl)((S)-3-hydroxypyrrolidin-1-yl)methanone]
12 | 108% |  | C[S+]([O-])c1cn(-c2ncc(-c3ccccc3F)cn2)c2cc(C(=O)N3CC[C@@H](N)C3)ccc12 (stereo partly drawn) [Example 68]
13 | 95% |  | CS(=O)(=O)c1cn(-c2ncc(-c3ccccc3F)cn2)c2cc(C(=O)N3CC[C@@H](N)C3)ccc12 [Example 69, (R)-(3-Aminopyrrolidin-1-yl)(1-(5-(2-fluorophenyl)pyrimidin-2-yl)-3-(methylsulfonyl)-1H-indol-6-yl)methanone]
14 | 84% |  | C[S+]([O-])c1cn(-c2ncc(-c3ccccc3)cn2)c2cc(C(=O)N3CCNC(=O)C3)ccc12 (stereo not drawn) [Example 70, 4-(3-(Methylsulfinyl)-1-(5-phenylpyrimidin-2-yl)-1H-indole-6-carbonyl)piperazin-2-one]
15 | 63% |  | COC[C@@H]1CCCN1C(=O)c1ccc2c([S+](C)[O-])cn(-c3ncc(-c4ccccc4F)cn3)c2c1 (stereo partly drawn) [Example 71]
16 |  | 33% | COC1CCN(C(=O)c2ccc3c([S+](C)[O-])cn(-c4ncc(-c5ccccc5F)cn4)c3c2)CC1 (stereo not drawn) [Example 72, (1-(5-(2-Fluorophenyl)pyrimidin-2-yl)-3-(methylsulfinyl)-1H-indol-6-yl)(4-methoxypiperidin-1-yl)methanone]
17 | 78% |  | C[S+]([O-])c1cn(-c2ncc(-c3ccccc3F)cn2)c2cc(C(=O)N3CCC(O)CC3)ccc12 (stereo not drawn) [Example 73, (1-(5-(2-Fluorophenyl)pyrimidin-2-yl)-3-(methylsulfinyl)-1H-indol-6-yl)(4-hydroxypiperidin-1-yl)methanone]
18 |  | 63% | C[S+]([O-])c1cn(-c2ncc(-c3ccccc3F)cn2)c2cc(C(=O)N3CCOC(C)(C)C3)ccc12 (stereo not drawn) [Example 74, (2,2-Dimethylmorpholino)(1-(5-(2-fluorophenyl)pyrimidin-2-yl)-3-(methylsulfinyl)-1H-indol-6-yl)methanone]
19 | 47% |  | C[S+]([O-])c1cn(-c2ncc(-c3ccccc3F)cn2)c2cc(C(=O)NC3COC3)ccc12 (stereo not drawn) [Example 75, 1-(5-(2-Fluorophenyl)pyrimidin-2-yl)-3-(methylsulfinyl)-N-(oxetan-3-yl)-1H-indole-6-carboxamide]
20 | 58% |  | CN1CCN(C(=O)c2ccc3c([S+](C)[O-])cn(-c4ncc(-c5ccccc5F)cn4)c3c2)CC1=O (stereo not drawn) [Example 76, 4-(1-(5-(2-Fluorophenyl)pyrimidin-2-yl)-3-(methylsulfinyl)-1H-indole-6-carbonyl)-1-methylpiperazin-2-one]
21 | 67% |  | COC[C@H]1CCCN1C(=O)c1ccc2c([S+](C)[O-])cn(-c3ncc(-c4ccccc4F)cn3)c2c1 (stereo partly drawn) [Example 77, (1-(5-(2-Fluorophenyl)pyrimidin-2-yl)-3-(methylsulfinyl)-1H-indol-6-yl)((R)-2-(methoxymethyl)pyrrolidin-1-yl)methanone]
22 | 70% |  | C[S+]([O-])c1cn(-c2ncc(-c3ccccc3F)cn2)c2cc(C(=O)N3CCC[C@@H]3CO)ccc12 (stereo partly drawn) [Example 78, (1-(5-(2-Fluorophenyl)pyrimidin-2-yl)-3-(methylsulfinyl)-1H-indol-6-yl)((R)-2-(hydroxymethyl)pyrrolidin-1-yl)methanone]
23 | 103% |  | C[S+]([O-])c1cn(-c2ncc(-c3ccccc3F)cn2)c2cc(C(=O)N3CCC[C@H]3CO)ccc12 (stereo partly drawn) [Example 79, (1-(5-(2-Fluorophenyl)pyrimidin-2-yl)-3-(methylsulfinyl)-1H-indol-6-yl)((S)-2-(hydroxymethyl)pyrrolidin-1-yl)methanone]
24 | 96% |  | C[S+]([O-])c1cn(-c2ncc(-c3ccccc3F)cn2)c2cc(C(=O)N3CCC[C@@H](O)C3)ccc12 (stereo partly drawn) [Example 80, (1-(5-(2-Fluorophenyl)pyrimidin-2-yl)-3-(methylsulfinyl)-1H-indol-6-yl)((R)-3-hydroxypiperidin-1-yl)methanone]
25 | 63% |  | C[S+]([O-])c1cn(-c2ncc(-c3ccccc3F)cn2)c2cc(C(=O)N3CCC[C@H](O)C3)ccc12 (stereo partly drawn) [Example 81, (1-(5-(2-Fluorophenyl)pyrimidin-2-yl)-3-(methylsulfinyl)-1H-indol-6-yl)((S)-3-hydroxypiperidin-1-yl)methanone]
26 | 71% |  | CO[C@@H]1CCN(C(=O)c2ccc3c([S+](C)[O-])cn(-c4ncc(-c5ccccc5F)cn4)c3c2)C1 (stereo partly drawn) [Example 82, (1-(5-(2-Fluorophenyl)pyrimidin-2-yl)-3-(methylsulfinyl)-1H-indol-6-yl)((R)-3-methoxypyrrolidin-1-yl)methanone]
27 | 67% |  | C[S+]([O-])c1cn(-c2ncc(-c3ccccc3F)cn2)c2cc(C(=O)NCC3COC3)ccc12 (stereo not drawn) [Example 83, 1-(5-(2-Fluorophenyl)pyrimidin-2-yl)-3-(methylsulfinyl)-N-(oxetan-3-ylmethyl)-1H-indole-6-carboxamide]
28 | 106% |  | C[C@@H]1CN(C(=O)c2ccc3c([S+](C)[O-])cn(-c4ncc(-c5ccccc5F)cn4)c3c2)CCO1 (stereo partly drawn) [Example 84, (1-(5-(2-Fluorophenyl)pyrimidin-2-yl)-3-(methylsulfinyl)-1H-indol-6-yl)((R)-2-methylmorpholino)methanone]
29 | 115% |  | C[C@H]1CN(C(=O)c2ccc3c([S+](C)[O-])cn(-c4ncc(-c5ccccc5F)cn4)c3c2)CCO1 (stereo partly drawn) [Example 85, (1-(5-(2-Fluorophenyl)pyrimidin-2-yl)-3-(methylsulfinyl)-1H-indol-6-yl)((S)-2-methylmorpholino)methanone]
30 | 99% |  | C[S+]([O-])c1cn(-c2ncc(-c3ccc(O)cc3)cn2)c2cc(C(=O)N3CCOCC3)ccc12 (stereo not drawn) [Example 86, (1-(5-(4-Hydroxyphenyl)pyrimidin-2-yl)-3-(methylsulfinyl)-1H-indol-6-yl)(morpholino)methanone]
